Laboratory results from US20090176664A1, “High density peptide arrays containing kinase or phosphatase substrates” (priority 2007, published 2009).

System: Src and Abl kinases
Assay: Kinase inhibition assay with different kinase inhibitors on peptide array with Abl and Src peptide substrates
Format: biochemical
Details: FIG. 23; Src and Abl kinases plus one of three inhibitors
Experimental: Activity is measured using peptide arrays with Abl and Src peptide substrates.

specificity of the kinase inhibitor for their respective kinase: expected specificity
SMILES: COc1cc(Nc2c(C#N)cnc3cc(OCCCN4CCN(C)CC4)c(OC)cc23)c(Cl)cc1Cl [SKI606]
